Holding throughout (format): functional
For assay [1], the species on record is Rattus norvegicus. Briefly: Tested for maximum response in depolarization of isolated rat vagus nerve measured at dose 10 uM.
The species named for assay [2] is Rattus norvegicus. Description: Tested for effective concentration against 5-HT mediated depolarization of isolated rat vagus nerve.
Assay [3] deals with T1, Serotonin 3 (5-HT3) receptor (Rattus norvegicus) (UniProt P35563+Q9JJ16). Description: Agonist activity against 2-methyl-5-HT induced bradycardia (von Bezold-Jarisch (B-J) reflex) in anesthetized rats.
Assay [4] has as its target T1, Serotonin 3 (5-HT3) receptor (Rattus norvegicus). Description: Tested for % decrease in heart rate relative to pre-dose control against 2-methyl-5-HT induced bradycardia (von Bezold-Jarisch (B-J) reflex) in anesthetized rats. Set-up: scale not given: the % may be the effect or the level left.

The values that follow come from ChEMBL document CHEMBL1128795, “N-(Quinuclidin-3-yl)-2-(1-methyl-1H-indol-3-yl)-2-oxo-acetamide: a high affinity 5-HT3 receptor partial agonist” (Bioorg Med Chem Lett, 1995).

pEC50: −log10 of the molar value.

As to `NCCc1c[nH]c2ccc(O)cc12` [SEROTONIN], the Max response in the assay listed under Rattus norvegicus [1] worked out at 340 uV. This compound also had a pEC50 in the assay filed under Rattus norvegicus [2] of 6.01.
Compound `Cc1[nH]c2ccc(O)cc2c1CCN` showed a Max response in the assay listed under Rattus norvegicus [1] of 363 uV. Besides, it took a dose of 7.7 µg/kg to reach the 50% effect level in assay [3] (ED50). Further, the Control in assay [4] was determined as 58%. In the assay filed under Rattus norvegicus [2], this compound gave a negative logarithm of the EC50 (pEC50) of 5.21.

What is called pEC50 is the EC50 on a negative log10 scale, so that one unit is a factor of ten. What is called ED50 is the dose that gives a 50% effect, or the effect in half of the subjects.
